Measurements as given in ChEMBL document CHEMBL5260828, “Amphiphilic glycoconjugates as potential anti-cancer chemotherapeutics” (Eur J Med Chem, 2018).
In brackets after ≈: the same amount, converted by molar mass. Values belong to the compound of their own block, whether it stands above or below them.

Columns and labels:
[1] = system: HeLa; test: Cytotoxicity against human HeLa cells assessed as reduction of cell viability incubated for 48 hrs by MTT assay; type: functional, cell-based
[2] = system: Jurkat; test: Cytotoxicity against human Jurkat cells incubated for 16 hrs by MTS colorimetric assay; type: functional, cell-based
[3] = system: A549; test: Antiproliferative activity against human A549 cells assessed as inhibition of cell proliferation incubated for 48 hrs by SRB assay; type: functional, cell-based; settings: A549, 48 h
[4] = system: HBL-100; test: Antiproliferative activity against human HBL-100 cells assessed as inhibition of cell proliferation incubated for 48 hrs by SRB assay; type: functional, cell-based; settings: HBL-100, 48 h
[5] = system: HeLa; test: Antiproliferative activity against human HeLa cells assessed as inhibition of cell proliferation incubated for 48 hrs by SRB assay; type: functional, cell-based
[6] = system: SW1573; test: Antiproliferative activity against human SW1573 cells assessed as inhibition of cell proliferation incubated for 48 hrs by SRB assay; type: functional, cell-based; settings: SW1573, 48 h
[7] = system: T47D; test: Antiproliferative activity against human T47D cells assessed as inhibition of cell proliferation incubated for 48 hrs by SRB assay; type: functional, cell-based
[8] = system: WiDr; test: Antiproliferative activity against human WiDr cells assessed as inhibition of cell proliferation incubated for 48 hrs by SRB assay; type: functional, cell-based
[9] = system: HFF; test: Cytotoxicity against human HFF cells; type: functional, cell-based
[10] = system: MRC5; test: Cytotoxicity against human MRC5 cells; type: functional, cell-based
[11] = system: SW480; test: Cytotoxicity against human SW480 cells; type: functional, cell-based
[12] = system: HT-29; test: Cytotoxicity against human HT-29 cells; type: functional, cell-based
[13] = system: SAOS-2; test: Cytotoxicity against human SAOS-2 cells; type: functional, cell-based
[14] = system: DLD-1; test: Cytotoxicity against human DLD-1 cells; type: functional, cell-based
[15] = system: NCI-H460; test: Cytotoxicity against human NCI-H460 cells; type: functional, cell-based
[16] = system: MCF7; test: Antiproliferative activity against human MCF7 cells assessed as inhibition of cell proliferation incubated for 24 hrs by trypan blue assay; type: functional, cell-based; settings: MCF7, 24 h
[17] = system: HL-60; test: Induction of apoptosis in human HL-60 cells at 5 uM incubated for 24 hrs by Annexin V-FITC/PI based flow cytometric analysis; type: functional
[18] = system: HL-60; test: Cytotoxicity against human HL-60 cells assessed as inhibition of cell growth incubated for 22 hrs by MTS spectrophotometric assay; type: functional, cell-based; settings: HL-60, 22 h
[19] = system: THP-1; test: Cytotoxicity against human THP-1 cells assessed as inhibition of cell growth incubated for 22 hrs by MTS spectrophotometric assay; type: functional, cell-based; settings: THP-1, 22 h

Compound: CCCCCCCCCCCCCCCC(=O)OCc1cn([C@@H]2O[C@H](CO)[C@@H](O)[C@H](O)[C@H]2O)nn1
IC50 [1]: 121 µM

Compound: CCCCCCCCCCCCCCCCn1cc(CO[C@@H]2O[C@H](CO)[C@@H](O)[C@H](O)[C@H]2O)nn1
IC50 [2]: 24 µM

IC50 [3]: 30 µM
IC50 [5]: 30 µM
IC50 [6]: 30 µM
IC50 [7]: 30 µM
Compound: CCCCCCCCN[C@@H]1[C@H](O)[C@@H](O)[C@@H](O)[C@H]2COC(=O)N21
IC50 [4]: 30 µM
IC50 [8]: 30 µM

Compound: C[C@@H](N)[C@H](O)CCCCCCCC(=O)CCCCCCCCCCCCCC[C@H](O)[C@H](N)CO[C@@H]1O[C@H](CO)[C@@H](O)[C@H](O)[C@H]1O
IC50 [9]: 3 µg/mL (≈ 4.62 µM)
IC50 [10]: 3 µg/mL (≈ 4.62 µM)
IC50 [11]: 3 µg/mL (≈ 4.62 µM)
IC50 [12]: 3 µg/mL (≈ 4.62 µM)
IC50 [13]: 3 µg/mL (≈ 4.62 µM)
IC50 [14]: 3 µg/mL (≈ 4.62 µM)
IC50 [15]: 3 µg/mL (≈ 4.62 µM)

IC50 [16]: 22 µM
Compound: CCCCCCCC[C@@H]1[C@H](O)[C@@H](O)[C@H](O)[C@H]2COC(=O)N12

Compound: C[C@@H](N)[C@H](O)CCCCCCCCCCCCCCC(=O)CCCCCCC[C@@H](O)[C@@H](C)N
Activity [17]: 93%

Compound: C[C@@H](N)[C@H](O)CCCCCCCC(=O)CCCCCCCCCCCCCC[C@H](O[C@@H]1O[C@H](CO)[C@H](O)[C@H](O)[C@H]1O)[C@@H](C)N
IC50 [18]: 1.7 µM
IC50 [19]: 1.7 µM
